Reference: publication PMC3551614 (Journal of the American Chemical Society, 2012)
Several values for one entry are separate records, joined by “and”; a condition that tells them apart may be missing. Equal entries are not always repeated. Where two headings read alike, the source gives them in different places. Marks after values point to notes of the source that are not given here. Numbered stars: 1 amine (or outer) side, 2 acyl side, 3 side chain; on linkers, the order of the positions; unused ones are H or OH. Bridge positions count the residues as written; N and C are the ends. Square brackets hold non-standard residues; d marks the D form. Ends that are not written are not given here. Peptide text beside a SMILES is read from it. β3hW = N[C@H](CC(=O)O)Cc1c[nH]c2ccccc12; X1 = O=C([C@H]1CNC[C@@H]1N[*:1])[*:2]; β3hE = N[C@@H](CCC(=O)O)CC(=O)O; β3hN = NC(=O)C[C@H](N)CC(=O)O; β3hL = CC(C)C[C@H](N)CC(=O)O; Nle = CCCC[C@H](N)C(=O)O

Legend:
homodimeric VEGF165 = target: T1, homodimeric VEGF165 (Homo sapiens, UniProt P15692); assay: competition fluorescence polarization; format: binding
T1 sequence (P15692 1-191 isoform P15692-4): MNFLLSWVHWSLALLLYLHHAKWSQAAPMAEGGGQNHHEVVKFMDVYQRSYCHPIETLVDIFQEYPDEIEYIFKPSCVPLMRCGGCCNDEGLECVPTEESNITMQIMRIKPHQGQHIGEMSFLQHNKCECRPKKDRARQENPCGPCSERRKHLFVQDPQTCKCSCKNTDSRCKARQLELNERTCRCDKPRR

proteinase K = proteinase K (Parengyodontium album, UniProt P06873); assay: proteinase K degradation; details: for stability to proteinase K relative to v114*: ratio of t1/2 to that of v114*, standard conditions
toxicity control studies = details: at the inhibitory concentrations
[1] = system: human umbilical vein endothelial cells (HUVECs); assay: VEGF-induced HUVEC proliferation; details: 10 ng/mL VEGF; tested above and below the measured Ki
[2] = system: human umbilical vein endothelial cells (HUVECs); details: cited from earlier work
v107 = assay: competition
v114 = target: T2, v114 (disulfide 5-15); assay: competition fluorescence polarization
T2 chain: VEPNCDIHVMWEWECFERL

proteinase K, sequence (P06873 106-384): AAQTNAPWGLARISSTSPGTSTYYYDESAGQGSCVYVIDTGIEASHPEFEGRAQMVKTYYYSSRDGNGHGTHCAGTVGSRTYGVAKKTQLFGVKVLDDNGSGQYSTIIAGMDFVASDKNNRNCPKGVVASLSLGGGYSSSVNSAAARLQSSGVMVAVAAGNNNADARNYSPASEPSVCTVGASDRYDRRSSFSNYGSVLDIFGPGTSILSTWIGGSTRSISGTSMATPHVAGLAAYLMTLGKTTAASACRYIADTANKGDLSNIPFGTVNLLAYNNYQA

| Molecule | loss of affinity for VEGF (higher Ki) relative to v114* (homodimeric VEGF165; ratio of Ki to Ki of v114*) | stability to proteinase K relative to v114* (proteinase K; proteinase K) | toxicity (toxicity control studies) | inhibition of VEGF-stimulated HUVEC proliferation, potency in words [1] | also measured |
| --- | --- | --- | --- | --- | --- |
| CCCC[C@@H]1NC(=O)[C@H](C(C)C)NC(=O)[C@H](Cc2c[nH]cn2)NC(=O)[C@H]([C@@H](C)CC)NC(=O)[C@H](CC(=O)O)NC(=O)[C@@H](NC(=O)C[C@H](CC(N)=O)NC(=O)[C@@H]2CCCN2C(=O)C[C@H](CCC(=O)O)NC(=O)[C@@H](N)C(C)C)CSSC[C@@H](C(=O)N[C@@H](Cc2ccccc2)C(=O)N[C@H]2CNC[C@@H]2C(=O)N[C@@H](CCCNC(=N)N)C(=O)N[C@H](CC(N)=O)CC(C)C)NC(=O)[C@H](CCC(=O)O)NC(=O)[C@H](Cc2c[nH]c3ccccc23)NC(=O)C[C@H](CCC(=O)O)NC(=O)[C@H](Cc2c[nH]c3ccccc23)NC1=O [compound 3] (H-V[β3hE]P[β3hN]CDIHV[Nle]W[β3hE]WECF[X1]R[β3hL]-NH2; disulfide 5-15; N-terminus and C-terminus assumed) | 27 fold and ~ 27 fold | 15 fold | not toxic | less potent than v114* | principal cleavage site (proteinase K; proteinase K, mass spectroscopic analysis): between ^nL10 and W11 |
| CCCC[C@@H]1NC(=O)[C@H](C(C)C)NC(=O)[C@H](Cc2c[nH]cn2)NC(=O)[C@H]([C@@H](C)CC)NC(=O)[C@H](CC(=O)O)NC(=O)[C@@H](NC(=O)[C@H](CC(N)=O)NC(=O)[C@@H]2CCCN2C(=O)C[C@H](CCC(=O)O)NC(=O)[C@@H](N)C(C)C)CSSC[C@@H](C(=O)N[C@@H](Cc2ccccc2)C(=O)N[C@H]2CNC[C@@H]2C(=O)N[C@@H](CCCNC(=N)N)C(=O)N[C@H](CC(N)=O)CC(C)C)NC(=O)[C@H](CCC(=O)O)NC(=O)[C@H](Cc2c[nH]c3ccccc23)NC(=O)C[C@H](CCC(=O)O)NC(=O)[C@H](Cc2c[nH]c3ccccc23)NC1=O [compound 2] (H-V[β3hE]PNCDIHV[Nle]W[β3hE]WECF[X1]R[β3hL]-NH2; disulfide 5-15; N-terminus and C-terminus assumed) | 12 fold |  |  |  |  |
| CCCC[C@@H]1NC(=O)[C@H](C(C)C)NC(=O)[C@H](Cc2c[nH]cn2)NC(=O)[C@H]([C@@H](C)CC)NC(=O)[C@H](CC(=O)O)NC(=O)[C@@H](NC(=O)C[C@H](CC(N)=O)NC(=O)[C@@H]2CCCN2C(=O)C[C@H](CCC(=O)O)NC(=O)[C@@H](N)C(C)C)CSSC[C@@H](C(=O)N[C@@H](Cc2ccccc2)C(=O)N[C@H]2CNC[C@@H]2C(=O)N[C@@H](CCCNC(=N)N)C(=O)N[C@H](CC(N)=O)CC(C)C)NC(=O)[C@H](CCC(=O)O)NC(=O)[C@H](Cc2c[nH]c3ccccc23)NC(=O)C[C@H](CCC(=O)O)NC(=O)C[C@H](Cc2c[nH]c3ccccc23)NC1=O [compound 4] (H-V[β3hE]P[β3hN]CDIHV[Nle][β3hW][β3hE]WECF[X1]R[β3hL]-NH2; disulfide 5-15; N-terminus and C-terminus assumed) |  | ~190 fold | not toxic | less potent than v114* | affinity for VEGF lower than that of 3 (homodimeric VEGF165): ~ 3 fold; loss of affinity for VEGF (higher Ki) relative to v114* (homodimeric VEGF165): ~ 77 fold; resistance to proteolysis relative to 3 (proteinase K): > 10 fold |
| CC[C@H](C)[C@@H]1NC(=O)[C@H](CC(=O)O)NC(=O)[C@@H](NC(=O)[C@H](CC(N)=O)NC(=O)[C@@H]2CCCN2C(=O)[C@H](CCC(=O)O)NC(=O)[C@@H](N)C(C)C)CSSC[C@@H](C(=O)N[C@@H](Cc2ccccc2)C(=O)N[C@@H](CCC(=O)O)C(=O)N[C@@H](CCCNC(=N)N)C(=O)N[C@@H](CC(C)C)C(N)=O)NC(=O)[C@H](CCC(=O)O)NC(=O)[C@H](Cc2c[nH]c3ccccc23)NC(=O)[C@H](CCC(=O)O)NC(=O)[C@H](Cc2c[nH]c3ccccc23)NC(=O)[C@H](CCSC)NC(=O)[C@H](C(C)C)NC(=O)[C@H](Cc2c[nH]cn2)NC1=O [v114] (H-VEPNCDIHVMWEWECFERL-NH2; disulfide 5-15; N-terminus and C-terminus assumed) |  |  |  |  | inhibition of VEGF-induced HUVEC proliferation [2]: inhibits |
| VEGF165 VEGF165 (protein) APMAEGGGQNHHEVVKFMDVYQRSYCHPIETLVDIFQEYPDEIEYIFKPSCVPLMRCGGCCNDEGLECVPTEESNITMQIMRIKPHQGQHIGEMSFLQHNKCECRPKKDRARQEKKSVRGKGKGQKRKRKKSRYKSWSVPCGPCSERRKHLFVQDPQTCKCSCKNTDSRCKARQLELNERTCRCDKPRR |  |  |  |  | Ki (v107): 600 nM; Ki (v114): 70 nM |
